# From ChEMBL document CHEMBL1201862, “PubChem BioAssay data set” (2004)
#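 Grown in 96-well plates, cells were treated for 48 hours with each compound at five concentrations. Insufficient inhibition: endpoint recorded as highest concentration tested. At the GI50, growth is halved.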 The source made the active and inactive calls. Rule as the data show it: active = GI50 up to about 1.1 µM and inactive = higher.
# Legend:
# Assay in all cases: DTP human tumour cell line panel, 48 h
# [1] = system: SK-MEL-2
# [2] = system: Malme-3M
# [3] = system: HT-29
# [4] = system: NCI/ADR-RES
# [5] = system: HCT-15
# [6] = system: LOX IMVI
# [7] = system: NCI-H522
# [8] = system: UACC-257
# [9] = system: SNB-75
# [10] = system: SK-MEL-28
# [11] = system: DU-145
# [12] = system: NCI-H226
# [13] = system: SF-295
# [14] = system: UO-31
# [15] = system: HCT-116
# [16] = system: TK-10
# [17] = system: SF-539
# [18] = system: HOP-92
# [19] = system: HOP-62
# [20] = system: SW-620
SMILES,GI50 [1],GI50 [2],GI50 [3],GI50 [4],GI50 [5] [µM],GI50 [6],GI50 [7],GI50 [8],GI50 [9],GI50 [10],GI50 [11],GI50 [12],GI50 [13],GI50 [14],GI50 [15],GI50 [16],GI50 [17],GI50 [18],GI50 [19],GI50 [20]
CCCCCCCCCCNC(=O)CCC(NC(=O)c1ccc(N(C)Cc2cnc3nc(N)nc(N)c3n2)cc1)C(=O)NCCCCCCCCCC (stereo not given),13.6 µM (inactive),12.4 µM (inactive),10.5 µM (inactive),> 90.6 µM (inactive),17.9,2.36 µM (inactive),4.43 µM (inactive),7.89 µM (inactive),11.9 µM (inactive),8.79 µM (inactive),20.1 µM (inactive),18.8 µM (inactive),43.7 µM (inactive),74.3 µM (inactive),3.71 µM (inactive),55.8 µM (inactive),5.13 µM (inactive),9.1 µM (inactive),31.8 µM (inactive),3.13 µM (inactive)
C=CCSC1=N/C(=C\c2ccccc2)C(=O)N1CC=C,29.6 µM (inactive),47 µM (inactive),23.6 µM (inactive),45.1 µM (inactive),35.2,26.4 µM (inactive),31.2 µM (inactive),33.2 µM (inactive),33.3 µM (inactive),> 83.8 µM (inactive),> 86.5 µM (inactive),28.5 µM (inactive),58.1 µM (inactive),40.5 µM (inactive),29.8 µM (inactive),> 74.6 µM (inactive),84.1 µM (inactive),17.1 µM (inactive),99.1 µM (inactive),49.7 µM (inactive)
CCOc1ccc(/N=N/S(=O)(=O)O)cc1,> 100 µM (inactive),> 100 µM (inactive),> 100 µM (inactive),> 100 µM (inactive),> 100,> 100 µM (inactive),> 100 µM (inactive),> 100 µM (inactive),> 100 µM (inactive),> 100 µM (inactive),> 100 µM (inactive),> 100 µM (inactive),> 100 µM (inactive),> 100 µM (inactive),> 100 µM (inactive),> 100 µM (inactive),> 100 µM (inactive),> 100 µM (inactive),> 100 µM (inactive),> 100 µM (inactive)
